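Following 48 hours of exposure in 96-well plates, responses at five concentrations were used to interpolate endpoints linearly. Here, GI50 denotes the concentration required for 50% inhibition of growth. TGI denotes the concentration required for complete inhibition of growth.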
Assays:
Assay in all cases: NCI-60 cell line screen, 48 h
[1] = test system: 786-0 renal
[2] = test system: A498 renal
[3] = test system: A549 NSCLC
[4] = test system: ACHN renal
[5] = test system: BT-549 breast
[6] = test system: CAKI-1 renal
[7] = test system: CCRF-CEM leukemia
[8] = test system: DU-145 prostate
[9] = test system: EKVX NSCLC
[10] = test system: HCC-2998 colon
[11] = test system: HCT-116 colon
[12] = test system: HCT-15 colon
[13] = test system: HL-60(TB) leukemia
[14] = test system: HOP-62 NSCLC
[15] = test system: HOP-92 NSCLC
[16] = test system: HS 578T breast
[17] = test system: HT29 colon
[18] = test system: IGROV1 ovarian
[19] = test system: KM12 colon
[20] = test system: LOX IMVI melanoma
[21] = test system: M14 melanoma
[22] = test system: MALME-3M melanoma
[23] = test system: MCF7 breast
[24] = test system: MDA-MB-231 breast
[25] = test system: MDA-MB-435
[26] = test system: MOLT-4 leukemia
[27] = test system: NCI-H226 lung
[28] = test system: NCI-H23 lung
[29] = test system: NCI-H460 lung
[30] = test system: NCI-H522 lung
[31] = test system: NCI/ADR-RES ovarian
[32] = test system: OVCAR-3 ovarian
[33] = test system: OVCAR-4 ovarian
[34] = test system: OVCAR-5 ovarian
[35] = test system: OVCAR-8 ovarian
[36] = test system: PC-3 prostate
[37] = test system: RPMI-8226 leukemia
[38] = test system: RXF 393 renal
[39] = test system: SF-268 CNS
[40] = test system: SF-539 CNS
[41] = test system: SK-MEL-2 melanoma
[42] = test system: SK-MEL-28 melanoma
[43] = test system: SK-MEL-5 melanoma
[44] = test system: SK-OV-3 ovarian
[45] = test system: SN12C renal
[46] = test system: SNB-19 CNS
[47] = test system: SNB-75 CNS
[48] = test system: SR leukemia
[49] = test system: SW-620 colon
[50] = test system: T-47D breast
[51] = test system: TK-10 renal
[52] = test system: U251 CNS
[53] = test system: UACC-257 melanoma
[54] = test system: UACC-62 melanoma
[55] = test system: UO-31 renal

With Clc1ccc(C(Cn2ccnc2)OCc2ccsc2Cl)c(Cl)c1 (centres undefined) the GI50 [1] was 2.97 µM, the TGI [1] was 9.89 µM and the GI50 [2] was 2.33 µM. It also gave a TGI [2] of 13.9 µM, a GI50 [3] of 3.12 µM and a TGI [3] of 14.2 µM. For the same molecule, the GI50 [4] was 4.17 µM, the TGI [4] was 15 µM and the GI50 [5] was 2.92 µM. For the same molecule, the TGI [5] was 9.01 µM, the GI50 [6] was 2.05 µM and the TGI [6] was 7.36 µM. It also gave a GI50 [7] of 2.4 µM, a TGI [7] of 7.74 µM and a GI50 [8] of 7.69 µM. The TGI [8] was 20.6 µM, the GI50 [9] was 2.51 µM and the TGI [9] was 13.4 µM. For the same molecule, the GI50 [10] was 2.73 µM, the TGI [10] was 9.46 µM and the GI50 [11] was 2.84 µM. It also gave a TGI [11] of 10.6 µM, a GI50 [12] of 3.95 µM and a TGI [12] of 14.2 µM. It also gave a GI50 [13] of 1.82 µM, a TGI [13] of 4.96 µM and a GI50 [14] of 4.92 µM. The TGI [14] was 16.9 µM, the GI50 [15] was 1.6 µM and the TGI [15] was 5.93 µM. The GI50 [16] was 4.44 µM, the TGI [16] was greater than 100 µM and the GI50 [17] was 2.73 µM. It also gave a TGI [17] of 9.34 µM, a GI50 [18] of 3.15 µM and a TGI [18] of 14 µM. For the same molecule, the GI50 [19] was 3.01 µM, the TGI [19] was 13.5 µM and the GI50 [20] was 2.51 µM. It also gave a GI50 [21] of 2.72 µM, a TGI [21] of 8.27 µM and a GI50 [22] of 2.62 µM. The TGI [22] was 8.62 µM, the GI50 [23] was 3.24 µM and the TGI [23] was 14.4 µM. For the same molecule, the GI50 [24] was 4.34 µM, the TGI [24] was 18.6 µM and the GI50 [25] was 2.16 µM. The TGI [25] was 5.59 µM, the GI50 [26] was 2.4 µM and the TGI [26] was 10.5 µM. For the same molecule, the GI50 [27] was 5.62 µM, the TGI [27] was 30.7 µM and the GI50 [28] was 2.18 µM. The TGI [28] was 8.77 µM, the GI50 [29] was 2.84 µM and the TGI [29] was 10.1 µM. It also gave a GI50 [30] of 2.7 µM, a TGI [30] of 9.52 µM and a GI50 [31] of 1.91 µM. It also gave a TGI [31] of 5.71 µM, a GI50 [32] of 5.11 µM and a TGI [32] of 16.4 µM. The GI50 [33] was 2.34 µM, the TGI [33] was 12.7 µM and the GI50 [34] was 4.91 µM. For the same molecule, the TGI [34] was 18.2 µM, the GI50 [35] was 3.05 µM and the TGI [35] was 14.3 µM. For the same molecule, the GI50 [36] was 2.07 µM, the TGI [36] was 7.62 µM and the GI50 [37] was 1.81 µM. It also gave a TGI [37] of 5.53 µM, a GI50 [38] of 3.17 µM and a TGI [38] of 12.8 µM. The GI50 [39] was 4.73 µM, the TGI [39] was 30 µM and the GI50 [40] was 4.23 µM. The TGI [40] was 14.9 µM, the GI50 [41] was 2.4 µM and the TGI [41] was 5.67 µM. For the same molecule, the GI50 [42] was 4.18 µM, the TGI [42] was 15.3 µM and the GI50 [43] was 1.91 µM. The TGI [43] was 4.21 µM, the GI50 [44] was 5.08 µM and the TGI [44] was 16.8 µM. It also gave a GI50 [45] of 4.74 µM, a TGI [45] of 18.7 µM and a GI50 [46] of 5.41 µM. It also gave a TGI [46] of 20.6 µM, a GI50 [47] of 2.32 µM and a TGI [47] of 8.22 µM. For the same molecule, the GI50 [48] was 2.28 µM, the TGI [48] was 7.62 µM and the GI50 [49] was 3.27 µM. For the same molecule, the TGI [49] was 12.3 µM, the GI50 [50] was 4.04 µM and the TGI [50] was 16.9 µM. The GI50 [51] was 3.31 µM, the TGI [51] was 11.2 µM and the GI50 [52] was 2.79 µM. The TGI [52] was 11.2 µM, the GI50 [53] was 3.01 µM and the TGI [53] was 11.8 µM. The GI50 [54] was 3.72 µM, the TGI [54] was 14.3 µM and the GI50 [55] was 2.81 µM. It also gave a TGI [55] of 11.1 µM.

— PubChem BioAssay (NCI)
